In data set [1] the test system is SCC7 xenograft tumor. In words: Near-infrared fluorescence imaging of tumor in xenograft model. It counts as in vivo, Balb/c-nu mice. Particulars: 1 mg AlPcS4 equivalent/kg, tail vein, 24 hours after injection. On the procedure: (§1) 2×10^6 cells per 100 μl of the SCC7 cell line were injected subcutaneously to hind legs of Balb/c-nu mice of 19 to 22 g to create xenograft tumor models. When a tumor was grown to a size of about […], 29 experimental animals were divided into three groups (Day 0) based on the tumor size. Among them, 6 mice were used for near-infrared fluorescence imaging using the photosensitizer, and the other 23 mice were used to observe an inhibitory effect on tumor growth through the photodynamic therapy. A volume of the tumor was calculated with an equation of height×length×width×0.5.
(§2) For each of the AlPcS4-treated group and the GNR/AlPcS4 complex-treated group, the drug (each of AlPcS4 and GNR/AlPcS4 complex prepared in Preparation Example 2-4) dissolved in PBS (6.7 mM, pH 7.4, NaCl 154 mM) was injected into a tail vein of a mouse at the dose of 1 mg AlPcS4 equivalent/kilogram body weight. […] To compare the near-infrared fluorescence image and the accumulated amount in the tumor of the injected photosensitizer, two mice were taken from each group after 24 hours from the treatment of the drug (Day 2), and therefrom fluorescence images of AlPcS4 were obtained using a near-infrared fluorescence image device (IVIS Lumina) (Cy5.5 channel; Ex. filter 615-665 nm, Em. Filter 695-770 nm).

The test system of data set [2] is SCC7 cell line. In words: Cell viability test after photodynamic therapy (CCK-8). It counts as cell-based. Particulars: 5 μM AlPcS4 equivalent, 670 nm, 10 J/cm^2, after 24 hours. The method, then:
9000 cells of a SCC7 cell line per well were seeded in a 96 well plate, and cultured for 24 hours. After the AlPcS4 and the GNR/AlPcS4 complex prepared in Preparation Example 2-4 were diluted with a cell culture medium to have an equivalent concentration of 5 μM AlPcS4, 200 μl of the diluted solution per well was added and then maintained at 37° C. for 4 hours. For a control group, the same volume of cell culture medium was added to the plate. Afterwards, to remove the photosensitizer which was not taken up into the cell, the cells were washed with a cell culture medium twice, and then a fresh cell culture medium was added. The PDT-treated groups were irradiated with light at 670 nm using laser under conditions of a light dose density of 50 mW/cm^2 and light doses of 5 J/cm^2 and 10 J/cm^2. After 24 hours, cell viability was measured using a cell counting kit-8 (CCK-8, Dojindo Laboratories).

Data set [3] deals with SCC7 (Squamous cell Carcinoma) cell line. In words: Quantitative analysis of uptake into cells (fluorescence of cell lysis solution). It counts as cell-based. The conditions noted are these: 5 μM AlPcS4 equivalent, 4 hours. The method, then: 90000 cells of a SCC7 (Squamous cell Carcinoma) cell line per well were seeded in a 96 well plate and cultured for 24 hours. Afterwards, the AlPcS4 and the GNR/AlPcS4 complex prepared in Preparation Example 2-4 were diluted with a cell culture medium containing serum to have an equivalent concentration of 5 μM AlPcS4. […] of the diluted solution per well was added, and maintained at 37° C. for 4 hours. Subsequently, after the cell culture medium containing the photosensitizer was removed, the cells were washed three times, and then treated with 200 μl of 0.1% SDS/0.1M NaOH solution for 2 hours for cell lysis. Then, a fluorescence signal of the AlPcS4 generated from this solution was measured (Ex. 660 nm, Em. 690 nm).

For data set [4] the following is noted: at 675 nm, known value; cited from earlier work.
Data set [5] deals with SCC7 xenograft tumor. In words: Inhibition of tumor growth by photodynamic therapy in xenograft model. The conditions noted are these: 1 mg AlPcS4 equivalent/kg i.v., 670 nm 60 J/cm^2. It counts as in vivo, Balb/c-nu mice. On the procedure:
as §1
as §2, with “nm). […]” for “nm).”

For data set [6], the system named is skin photosensitivity. Particulars: patient after administration; cited from earlier work.
For data set [7] the following is noted: at 630 nm; cited from earlier work.

Like-named read-outs stand apart in the source and are kept apart here.

In the case of “Al(III) phthalocyanine chloride tetrasulfonic acid [AlPcS4]”, in data set [1], the “average fluorescence signal in tumor” value is 7224 counts and the “tumor-to-background ratio of the AlPcS4 fluorescence” value was found to be 2.5. In addition, the phototoxicity in data set [2] came out at 64%. For the same molecule, the “effect of increasing amount of serum (FBS) on uptake into cells” value in data set [3] is listed as “greatly decreased”. The molar absorption coefficient in data set [4] is 170000 M⁻¹ cm⁻¹. Moreover, in data set [5], the “course of tumor size after photodynamic therapy” value is given as “temporarily decreased”. Besides, in data set [5] (fifth day), the “size of the tumor relative to control group” value is 67%.
Take `C=Cc1c(C)c2cc3nc(c(CC(=O)N[C@@H](CC(=O)[O-])C(=O)[O-])c4nc(cc5[nH]c(cc1[nH]2)c(C)c5CC)C(C)=C4C(=O)[O-])[C@@H](CCC(=O)[O-])[C@@H]3C.[Na+].[Na+].[Na+].[Na+]` [Mono-L-aspartyl chlorine e6, mono-L-aspartyl chlorine e6]: the “duration of side effect of skin photosensitivity” value in data set [6] is recorded as 1 week.
On to Photofrin, for which, in data set [6], the “duration of side effect of skin photosensitivity” value is recorded as “more than 6 week”. In data set [7], the molar absorption coefficient is 1170 M⁻¹ cm⁻¹.

The record behind these values is US9095613B2, “Photosensitizer-metal nanoparticle charge complex and composition containing the complex for photodynamic therapy or diagnosis” (NATIONAL CANCER CENTER, priority 2009, dated 2015).
